pIC50: −log10 of the molar value.
How the values were obtained:
PDE 5 = target: T1, PDE 5 (Homo sapiens, UniProt O76074); test: Inhibition of PDE 5 (human platelet lysate, cGMP hydrolysis); assay type: biochemical; details: PDE 5 from washed human platelet supernatant; 10 μM cGMP; 37° C. 30 minutes; read-out: IC50 in inhibiting PDE 5
T1 construct: Washed human platelets were prepared by the method described in Teng et al; from tissue; host or cells: human platelets (sonicated lysate, 39,000×g supernatant)
Protocol: A suitable in vitro assay can be used to preliminarily evaluate the effect of a fused pyrazolyl compound on inhibiting a PDE, which hydrolyzes cGMP. For example, platelets are washed, suspended in a buffer, and disrupted by sonication to obtain a solution containing a PDE. A compound to be tested and cGMP (a substrate for the PDE) are added to the solution. Ophiophagus hannah snake venom is subsequently added to remove the phosphate in 5′-GMP (converted from cGMP by the PDE) to form uncharged guanosine. An ion-exchange resin is used to remove the remaining cGMP. The cGMP-free solution is then centrifuged, and an aliquot of the supernatant is taken for quantification of the uncharged guanosine in a liquid scintillation counter. Activity of the PDE is evaluated based on the amount of the uncharged guanosine. In vivo screening can be performed by following procedures well known in the art.
Washed human platelets were prepared by the method described in Teng et al. Biochem. Biophys. Acta. 1989, 990, 315-320, suspended in 50 mM pH 7.4 Tris-HCl buffer (containing 5 mM MgCl2), and then disrupted by sonication at 4° C. […] The cGMP-free solution thus obtained was then centrifuged, and 0.5 mL of the supernatant was taken for quantification of uncharged guanosine in a liquid scintillation counter.

SMILES	pIC50 (PDE 5)	melting point [°C]
COc1ccc2c(-c3ccc(CO)o3)nn(Cc3ccccc3)c2c1 [Compound 1, 1-benzyl-3-(5′-hydroxymethyl-2′-furyl)-6-methoxyindazole]	5.46	109 to 110
OCc1ccc(-c2nn(Cc3ccccc3)c3cc4c(cc23)OCO4)o1 [Compound 4, 1-benzyl-3-(5′-hydroxymethyl-2′-furyl)-5,6-methylenedioxoindazole]		122 to 123

From patent publication US7345079B2, “Treatment of disorder related to low cyclic GMP levels” (Yung Shin Pharmaceuticals Industrial Co., Ltd, priority 2001, dated 2008)
